In patent publication US20230147962A1, “FIBROBLAST ACTIVATION PROTEIN LIGANDS FOR TARGETED DELIVERY APPLICATIONS” (PHILOCHEM AG, priority 2020, published 2023):
*1 amine or outer side, *2 acyl side, *3 side chain or, on linkers, in order; H or OH if unused. Where a SMILES comes first, the peptide text is derived from it. The star is where a group is joined. Fluorescein(5-Mal) = O=C1OC2(c3ccc(O)cc3Oc3cc(O)ccc32)c2ccc(N3C(=O)CC(*)C3=O)cc21; X1 = N#C[C@@H]1CC(F)(F)CN1C(=O)CNC(=O)c1ccnc2c(N*)cccc12; Suc = O=C(CCC(=O)[*:2])[*:1]

How the values were obtained:
[1] = system: HT-1080.hFAP; assay: FACS analysis on HT-1080 wild type and HT-1080.hFAP; format: cell-based; details: 10 nM
Experimental: (§1) SK-RC-52.hFAP, SK-RC-52.wt, HT-1080.wt and HT-1080.hFAP were detached from culture plates using Accutase, counted and suspended to a final concentration of 1.5×10^6 cells/mL in a 1% v/v solution of FCS in PBS pH 7.4. […] Cells were washed once with 200 μL 1% v/v solution of FCS in PBS pH 7.4 (200 μL), spun down, resuspended in a 1% v/v solution of FCS in PBS pH 7.4 (300 μL) and analyzed on a CytoFLEX cytometer (Beckman Coulter). The raw data were processed with the FlowJo 10.4 software.

[2] = target: T1, hFAP (Homo sapiens, UniProt Q12884); assay: Affinity measurement to human FAP by fluorescence polarization; format: binding; details: binder 10 nM, read-out: KD to hFAP
T1 construct: made in house; host or cells: CHO cells, transient gene expression, purified from supernatant
T1 sequence (Q12884 with tags, fused parts or gaps): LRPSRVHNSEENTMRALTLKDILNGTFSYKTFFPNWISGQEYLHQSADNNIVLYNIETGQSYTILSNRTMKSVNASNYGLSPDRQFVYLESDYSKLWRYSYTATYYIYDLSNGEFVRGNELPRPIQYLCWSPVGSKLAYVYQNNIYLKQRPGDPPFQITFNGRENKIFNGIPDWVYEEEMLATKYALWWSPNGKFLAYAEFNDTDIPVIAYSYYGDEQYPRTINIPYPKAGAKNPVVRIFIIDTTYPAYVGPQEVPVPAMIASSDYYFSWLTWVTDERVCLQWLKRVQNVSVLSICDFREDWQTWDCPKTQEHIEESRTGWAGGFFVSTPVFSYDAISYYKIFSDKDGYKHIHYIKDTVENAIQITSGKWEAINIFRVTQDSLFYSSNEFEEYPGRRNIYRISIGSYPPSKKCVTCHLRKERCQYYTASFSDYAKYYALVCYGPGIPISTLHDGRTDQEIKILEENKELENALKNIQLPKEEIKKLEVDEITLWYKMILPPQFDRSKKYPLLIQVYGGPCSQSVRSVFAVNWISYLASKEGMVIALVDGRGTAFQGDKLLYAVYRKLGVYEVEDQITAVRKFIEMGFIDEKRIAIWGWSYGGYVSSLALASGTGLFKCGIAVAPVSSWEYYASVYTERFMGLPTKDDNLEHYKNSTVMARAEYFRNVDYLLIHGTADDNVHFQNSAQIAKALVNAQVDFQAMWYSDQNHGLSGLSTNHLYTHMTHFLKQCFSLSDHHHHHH
Experimental: Fluorescence polarization measurements were performed in 384-well plates (non-binding, ps, f-bottom, black, high volume, 30 μL final volume). A stock solution of human FAP (4 μM) was serially diluted with buffer (50 mM Tris, 100 mM NaCl, 1 mM EDTA, pH=7.4), while the final concentration of the binders was kept constant at 10 nM. The measurements were carried out after incubating for 30 min at 37° C. in the dark by fluorescent polarization (FIG. 4).
Fluorescence polarization experiments were performed in 384-well plates (non-binding, ps, f-bottom, black, high volume, 30 μL final volume). Stock solutions of human FAP (4 μM) and murine FAP (5 μM) were serially diluted with buffer (50 mM Tris, 100 mM NaCl, 1 mM EDTA, pH=7.4), while the final concentration of the binders was kept constant at 10 nM. The fluorescence anisotropy was measured on a TECAN microtiter plate reader. Experiments were performed in triplicate and the mean anisotropy values fitted using Prism 7.

[3] = system: HT-1080 Wild type; assay: Confocal microscopy on HT-1080 wild type; format: cell-based; details: negative control cells
Experimental: HT-1080.hFAP and HT-1080 cells were seeded into 4-well cover slip chamber plates at a density of 10^4 cells per well in DMEM medium (1 mL) supplemented with 10% FCS, AA and HEPES (10 mM) and allowed to grow for 24 hours under standard culture conditions. Hoechst 33342 nuclear dye was used to stain nuclear structures.
The culture medium was replaced with fresh medium containing conjugate 15 (100 nM). Randomly selected colonies imaged on a SP8 confocal microscope equipped with an AOBS device (Leica Microsystems).

[4] = system: SK-RC-52.hFAP; assay: FACS analysis on SK-RC-52 wild type and SK-RC-52.hFAP; format: cell-based; details: 10 nM
Experimental: as §1

[5] = system: SK-RC-52.hFAP renal cell carcinoma xenografts; assay: Ex vivo targeting experiment, SK-RC-52.hFAP xenografts; format: in vivo, BALB/C nu/nu mice; details: 40 nmol intravenous, ex vivo organ images 1 h
Experimental: SK-RC-52.hFAP cells were grown to 80% confluence and detached with Trypsin-EDTA 0.05%. Cells were re-suspended in HBSS medium to a final concentration of 5×10^7 cells/mL.
Mice bearing subcutaneous SK-RC-52.hFAP tumour was injected intravenously with conjugate 15 (40 nmol in sterile PBS, pH 7.4). Animals were sacrificed by CO2 asphyxiation 1h after the intravenous injection and the organs and the tumour were excised, snap-frozen in OCT medium and stored at −80° C. Cryostat sections ([…]) were cut and nuclei were stained with Fluorescence Mounting Medium (Dako Omnis, Agilent). Images were obtained using an Axioskop2 mot plus microscope (Zeiss) and analyzed by ImageJ 1.53 software.

For N#C[C@@H]1CC(F)(F)CN1C(=O)CNC(=O)c1ccnc2c(NC(=O)CCC(=O)N[C@@H](CC(=O)O)C(=O)N[C@@H](CCCCN)C(=O)N[C@@H](CC(=O)O)C(=O)N[C@@H](CSC3CC(=O)N(c4ccc5c(c4)C(=O)OC54c5ccc(O)cc5Oc5cc(O)ccc54)C3=O)C(=O)O)cccc12 (stereo partly drawn) [Conjugate 15, (2R,5S,8S,11S)-8-(4-aminobutyl)-5,11-bis(carboxymethyl)-16-((4-((2-((S)-2-cyano-4,4-difluoropyrrolidin-1-yl)-2-oxoethyl)carbamoyl)quinolin-8-yl)amino)-2-(((1-(3′,6′-dihydroxy-3-oxo-3H-spiro[isobenzofuran-1,9′-xanthen]-5-yl)-2,5-dioxopyrrolidin-3-yl)thio)methyl)-4,7,10,13,16-pentaoxo-3,6,9,12-tetraazahexadecanoic acid] ({X1-Suc}-DKDC(Fluorescein(5-Mal))-OH), the “cellular binding, HT-1080 Wild type vs HT-1080.hFAP” value [1] was “FAP-specific cellular binding”, the Kd [2] was 680 pM and the “accumulation on HT-1080 Wild type cells” value [3] was “no accumulation on the cell membrane and in the cytosol”. The “cellular binding, SK-RC-52 Wild type vs SK-RC-52.hFAP” value [4] was “FAP-specific cellular binding” and the “targeting performance in SK-RC-52.hFAP xenografts” value [5] was “rapidly and homogeneously localizes at the tumour site in vivo 1 hour after the intravenous injection, with a high tumour-to-organs selectivity”.
